Entries after “also recorded” stand apart in the source; their conditions may differ.
Key:
[1] = tested on: Taxol-induced hyperalgesia; test: Taxol-induced painful peripheral neuropathy, Randall-Selitto paw-withdrawal test; assay type: in vivo, rat; conditions: male and female rats, administered at site of nociceptive testing on paw
Description: (§1) The role of Ras-MEK-ERK 1/2 cascade in painful peripheral neuropathy has been evaluated in three rodent models of common clinical conditions in which patients experience painful peripheral neuropathy. The three models are as follows: 1) Taxol® (a major cancer chemotherapy agent)-induced painful peripheral neuropathy (Dina, O. A., et al., (2001) Role of protein kinase C-epsilon and protein kinase A in a model of paclitaxel-induced painful peripheral neuropathy in the rat. Neuroscience 108:507-515); 2) vincristine (another cancer chemotherapy agent)-induced painful peripheral neuropathy (Aley, K. O., et al., (1996) Vincristine hyperalgesia in the rat: a possible modelfor painful vincristine neuropathy in humans. Neuroscience 73:259-265; Tanner, K. D., et al., (1998) Nociceptor hyper-responsiveness during vincristine-induced painful peripheral neuropathy in the rat. J. Neuroscience 18:6480-6491; Tanner, K. D., et al., (1998) Microtubule disorientation and axonal swelling in unmyelinated sensory axons during vincristine-induced painful neuropathy in rat. J. Comp. Neurol., 395:481-492; and, Tanner, K. D., et al., (2002) Altered temporal patterning of afferent activity in a rat model of vincristine-induced peripheral neuropathy (Submitted -Neuroscience).); and, 3) alcohol-induced painful peripheral neuropathy (Dina, O. A., et al., (2000) Key role for the epsilon isoform of protein kinase C in painful alcoholic neuropathy in the rat. J. Neurosci. 20:8614-8619). In all three models, inhibition of MEK by a MEK inhibitor, PD98509, produced either a moderate (Taxol and vincristine) or profound (alcohol) reversal of the painful peripheral neuropathy. In the third model, alcohol-induced painful peripheral neuropathy, a second inhibitor of the Ras-MEK-ERK 1/2 cascade, which was MEK inhibitor U0126, was also employed.
The pain threshold in normal male and female rats was approximately 110 grams, using the Randall-Selitto paw-withdrawal test (plotted as absolute change in nociceptive threshold). Following administration of Taxol, the threshold fell to approximately 70 grams.

[2] = tested on: alcohol-induced hyperalgesia; test: Alcohol-induced painful peripheral neuropathy, Randall-Selitto paw-withdrawal test; assay type: in vivo, rat
Description: as §1
The pain threshold in normal rats was approximately 110 grams, using the Randall-Selitto paw-withdrawal threshold test (plotted as percentage change in nociceptive threshold). Following chronic consumption of a diet in which alcohol replaced calories, but not other nutrients, in the normal diet, the threshold fell to approximately 70 grams. […] See FIG. 13A, which illustrates results from female rats and FIG. 13B, which illustrates results from male rats.

[3] = tested on: vincristine-induced hyperalgesia; test: Vincristine-induced painful peripheral neuropathy, Randall-Selitto paw-withdrawal test; assay type: in vivo, rat; conditions: male and female rats, administered at site of nociceptive testing on paw
Description: as §1
The pain threshold in normal male and female rats was approximately 110 grams, using the Randall-Selitto paw-withdrawal test (plotted as absolute change in nociceptive threshold). Following administration of vincristine, the threshold fell to approximately 65 grams.

[4] = tested on: mechanical nociceptive threshold; test: Epinephrine-induced mechanical hyperalgesia, Randall-Selitto paw-withdrawal test (Example 1)
Description: (§4) The nociceptive flexion reflex (Randall-Selitto paw-withdrawal test) was quantified with a Basile Analge-symeter (Stoelting, Chicago, Ill.), which applies a linearly increasing mechanical force to the dorsum of the rat's hindpaw. The mechanical nociceptive threshold was defined as the force in grams at which the rat withdrew its paw. […] They were allowed to crawl into individual cylindrical Perspex blocks and were lightly restrained there by closing both ends of the cylinder. […] The rats were allowed to acclimatize to the restrainer for 5-10 min, after which the hindpaws were exposed to the test stimulus. Three readings were taken at 5 min intervals, and their mean was considered the baseline threshold. After each drug administration, mechanical paw-withdrawal thresholds were determined again as the mean of three readings taken 20, 25, and 30 min after injection.
Inhibitors were diluted with distilled water before intra-dermal injections into the paw using a 10 μl microsyringe (Hamilton, Reno, Nev.). Injections of peptides (1 μg/2.5 μl) were always preceded by injection of distilled water (2.5 μl) to produce hypo-osmotic shock. […] Paw-withdrawal thresholds were measured again 10, 15, and 20 min after injecting the test agent. The mean of the paw-withdrawal thresholds obtained at these three times was then taken as the mechanical nociceptive threshold at the dose of the test agent used. The effect of each dose a test agent was calculated as the percentage change from baseline.

[5] = tested on: mechanical nociceptive threshold; test: Epinephrine-induced hyperalgesia in gonad-intact and gonadectomized male and female rats (Example 2); conditions: inhibitor 1 μg, epinephrine 100 ng intradermal
Protocol: The nociceptive flexion reflex was quantified using the Randall-Selitto paw pressure device (Analgesymeter, Stoetling, Chicago, Ill., USA), which applies a linearly increasing mechanical force to the dorsum of the rat's hind paw. The mechanical nociceptive threshold was defined as the force in grams at which the rat withdrew its paw. […] Baseline paw-withdrawal threshold was defined as the mean of six readings before test agents were injected. […] Each group of rats was treated with only one agonist and/or antagonist injected peripherally by the intradermal route. […] All behavioural testing was done between 10.00 and 16.00 h. […] The protein kinase inhibitor was separated from the distilled water by drawing up a small air bubble (<1 μL) into the syringe after drawing up the protein kinase inhibitor but before drawing up the distilled water.
A stock solution of PGE2 (4 mg/mL) was made by dissolving it in 10% ethanol in normal saline; further dilution to 100 ng was made by addition of saline. Final concentration of ethanol was <10%. […] Stock solutions (1 μg/μL) of inhibitors were stored at −20° C. […] Inhibitors were injected at a concentration of 1 μg/2.5 μL.

[6] = tested on: mechanical nociceptive threshold; test: ψεRACK (PKCε activator)-induced hyperalgesia, Randall-Selitto paw-withdrawal test; assay type: in vivo, rat; conditions: intradermal, inhibitor 1 μg plus ψεRACK 1 μg, male rats
Protocol: (§2) The nociceptive flexion reflex (Randall-Selitto paw-withdrawal test) was quantified with a Basile Analge-symeter (Stoelting, Chicago, Ill.), which applies a linearly increasing mechanical force to the dorsum of the rat's hindpaw. The mechanical nociceptive threshold was defined as the force in grams at which the rat withdrew its paw. On the day of the test, animals were brought to the laboratory and allowed to remain in the cage for 10-15 min. They were allowed to crawl into individual cylindrical Perspex blocks and were lightly restrained there by closing both ends of the cylinder. […] Three readings were taken at 5 min intervals, and their mean was considered the baseline threshold. After each drug administration, mechanical paw-withdrawal thresholds were determined again as the mean of three readings taken 20, 25, and 30 min after injection. The result was expressed as the percentage decrease in nociceptive threshold [(paw-withdrawal threshold after the drug-basal paw withdrawal threshold)/basal withdrawal threshold×100].
(§3) Stock solutions (1 μg/μl) of BIM (in 10% dimethylsulfoxide) and εV1-2 and WI PTI DE (in 0.9% saline) were stored at […]. […] Paw-withdrawal thresholds were measured again 10, 15, and 20 min after injecting the test agent. […] The effect of each dose a test agent was calculated as the percentage change from baseline.

[7] = tested on: mechanical nociceptive threshold; test: PGE2-induced hyperalgesia, Randall-Selitto paw-withdrawal test (Example 1); assay type: in vivo, rat; conditions: intradermal, inhibitor 1 μg plus PGE2 100 ng, male rats
Protocol: as §2, §3

ERK1/2 = test: Epinephrine-stimulated ERK1/2 phosphorylation in cultured rat DRG neurons (Western analysis); assay type: cell-based
Protocol: Trypsin was inactivated by adding 100 μg/ml soybean trypsin inhibitor and 2.5 mg/ml MgSO4. The cells were centrifuged at 300×g for 5 min and resuspended culture media containing minimal essential medium (MEM) supplemented with 10% heat-inactivated fetal calf serum, 1×MEM vitamins, and 1000 U/ml each of penicillin and streptomycin. The culture was enriched for neurons by preplating on 100 mm culture dishes pretreated with 0.1 mg/ml poly-DL-ornithine in 15 mM sodium borate buffer. After culture for 15-20 hr, the loosely attached neuronal cells were collected and plated for 3 hr on six-well plates coated with 0.1 mg/ml poly-DL-ornithine and 1 mg/ml laminin.
After drug treatment, cells from neuron-enriched DRG cultures were collected and centrifuged at 300×g for 5 min at 4° C. […] Blots were incubated with anti-phospho-p42/44 MAP kinase antibody (diluted 1:500 in blocking buffer) overnight at 4° C. Blots were rinsed three times in PBS-T and incubated in blocking buffer containing HRP-conjugated goat anti-rabbit IgG (diluted 1:1000; Boehringer Mannheim, Indianapolis, Ind.) for 1 hr at 27° C. Immunoreactive bands were visualized by enhanced chemiluminescence (Amersham Pharmacia Biotech, Piscataway, N.J.). The membranes were then stripped of antibodies by incubation in 200 mM NaOH for 20 min at 27° C. […] After three washes in PBS-T, blots were incubated with HRP-conjugated goat anti-rabbit IgG (diluted 1:1000; Boehringer Mannheim) for 1 hr at 27° C., and immunoreactive bands were visualized by enhanced chemiluminescence and autoradiography. […] Data were normalized by dividing values obtained for phospho-ERK1 and phospho-ERK2 immunoreactivity by the value obtained for total ERK1 immunoreactivity for each sample.

[8] = tested on: mechanical nociceptive threshold; test: Active MEK-induced hyperalgesia, Randall-Selitto paw-withdrawal test; conditions: intradermal, inhibitor 1 μg plus active MEK 0.5 U, male rats
Description: as §4
Inhibitors were diluted with distilled water before intra-dermal injections into the paw using a 10 μl microsyringe (Hamilton, Reno, Nev.). Injections of peptides (1 μg/2.5 μl) were always preceded by injection of distilled water (2.5 μl) to produce hypo-osmotic shock. […] Paw-withdrawal thresholds were measured again 10, 15, and 20 min after injecting the test agent. […] The effect of each dose a test agent was calculated as the percentage change from baseline.

[9] = tested on: mechanical nociceptive threshold; test: Prostaglandin E2-induced hyperalgesia in male and female rats (Example 2); assay type: in vivo, rat; conditions: both sexes, gonad-intact; inhibitor 1 μg, PGE2 100 ng intradermal
Description: The nociceptive flexion reflex was quantified using the Randall-Selitto paw pressure device (Analgesymeter, Stoetling, Chicago, Ill., USA), which applies a linearly increasing mechanical force to the dorsum of the rat's hind paw. The mechanical nociceptive threshold was defined as the force in grams at which the rat withdrew its paw. The protocols for this procedure have been previously described (Taiwo et al., (1989) The contribution of training to sensitivity in the nociceptive paw-withdrawal test. Brain Res., 487:148-151). Rats were familiarized in the testing procedure, at 5-min intervals for a period of 1 h per day for 3 days in the week preceding the experiment, to decrease variance in nociceptive thresholds (Taiwo et al., (1989), supra). Baseline paw-withdrawal threshold was defined as the mean of six readings before test agents were injected. Each paw was treated as an independent measure (Taiwo et al., (1989), supra) and each experiment was performed on a separate group of rats. Each group of rats was treated with only one agonist and/or antagonist injected peripherally by the intradermal route. It has been shown in previous studies that these agents, which are injected using the protocol described, exert a peripheral rather than central action (Khasar et al., (1995), supra; and, Khasar et al., (1999b), supra). The dose-response relationship for the effect of epinephrine was determined over a dose range of 1 ng-1 μg. All behavioural testing was done between 10.00 and 16.00 h. The blocking agents, with and without epinephrine (Khasar et al., (1999b), supra) or prostaglandin E2 (PGE2) (Aley et al., (1998), supra; Aley & Levine, (1999), supra; and, Aley et al., (2000) Chronic hypersensitivity for inflammatory nociceptor sensitization mediated by the epsilon isozyme of protein kinase C. J. Neurosci., 20:4680-4685), were injected as described previously (Khasar et al., (1995), supra; and, Khasar et al., (1999b), supra). […]

[10] = male and female rats, administered at site of nociceptive testing on paw

Row | Compound | effect on Taxol-induced hyperalgesia [1] | effect on Taxol-induced hyperalgesia ([1]; listed as PD98509) | effect on alcohol-induced hyperalgesia ([2]; female rats (FIG. 13A)) | effect on alcohol-induced hyperalgesia [2, 10] | effect on alcohol-induced hyperalgesia ([2]; male and female rats, administered at site of nociceptive testing on paw, listed as PD98509) | effect on alcohol-induced hyperalgesia ([2]; male rats (FIG. 13B)) | effect on vincristine-induced hyperalgesia [3] | effect on vincristine-induced hyperalgesia ([3]; listed as PD98509) | effect on vincristine-induced hyperalgesia ([3]; listed as PD980598) | effect on epinephrine-induced mechanical hyperalgesia ([4]; intradermal, inhibitor 1 μg plus epinephrine 100 ng, male rats) | effect on epinephrine-induced hyperalgesia ([5]; intact female rats) | effect on hyperalgesia induced by ψεRACK [6] | effect on hyperalgesia induced by PGE2 [7] | effect on epinephrine-induced ERK phosphorylation (ERK1/2) | effect on epinephrine-induced mechanical hyperalgesia ([4]; rat, in vivo) | effect on hyperalgesia induced by active MEK [8] | effect on epinephrine-induced hyperalgesia ([5]; gonadectomized female rats) | effect on epinephrine-induced hyperalgesia ([5]; intact male rats) | effect on prostaglandin E2-induced hyperalgesia [9]
1 | COc1cccc(-c2cc(=O)c3ccccc3o2)c1N [PD98059] | two-thirds reduction; also recorded: significantly reversed | moderate | almost completely reversed | almost complete reversal | profound | almost completely reversed | more than two-thirds reduction; also recorded: reversed | moderate | significantly reversed | inhibited | attenuated | had no effect | had no effect |  |  |  |  |  | 
2 | N#CC(=C(/N)Sc1ccccc1N)/C(C#N)=C(\N)Sc1ccccc1N [U0126] |  |  | almost completely reversed | almost complete reversal |  | almost completely reversed |  |  |  |  | attenuated | had no effect | had no effect | inhibited | inhibited |  |  |  | 
3 | WIPTIDE |  |  |  |  |  |  |  |  |  |  | neither inhibited |  |  |  |  | did not reduce | inhibition | antagonized | significantly blocked; also recorded: inhibited to a similar degree
